Assays:
Mus musculus [1] = assay: Concentration producing seizure after 0.5 hrs tested by MES (Maximal ElectroShock test) done after 30 min of administration in mouse
Mus musculus [2] = organism: Mus musculus; assay: Concentration of compound producing anticonvulsant drug-inducedneurologic deficit after 0.5 hrs done by rotarod ataxia test in mouse; settings: in vivo
Mus musculus [3] = assay: Concentration producing seizure after 4 hrs tested by MES (Maximal ElectroShock test) done after 30 min of administration in mouse; na=no activity; assay type: functional, organism-based
Mus musculus [4] = assay: Concentration producing seizure after 0.5 hrs tested by ScMet (Subcutaneous pentylenetetrazole test) done after 30 min of administration of 85 mg/kg pentylenetetrazol in mouse
Mus musculus [5] = assay: Concentration producing seizure after 4 hrs tested by ScMet (Subcutaneous pentylenetetrazole test) done after 30 min of administration of 85 mg/kg pentylenetetrazol in mouse; na=no activity; assay type: functional, organism-based; design: dose 85 mg/kg
Mus musculus [6] = organism: Mus musculus; assay: Concentration producing anticonvulsant drug-induced neurologic deficit after 4 hrs done by rotarod ataxia test in mouse; na=no activity; assay type: functional, organism-based
Rattus norvegicus = assay: Neurotoxicity expressed as median toxic dose (TD50) produced after Rotarod ataxia test in mouse by i.p. administration (range 62.8-72.9); assay type: functional; settings: ip
Mus musculus [7] = organism: Mus musculus; assay: Concentration of compound producing anticonvulsant drug-induced neurologic deficit after 0.5 hrs done by rotarod ataxia test in mouse; na=no activity; assay type: functional, organism-based
Mus musculus [8] = assay: Concentration producing seizure after 0.5 hrs tested by MES (Maximal ElectroShock test) done after 30 min of administration in mouse; na=no activity; assay type: functional, organism-based
Mus musculus [9] = assay: Concentration producing seizure after 0.5 hrs tested by ScMet (Subcutaneous pentylenetetrazole test) done after 30 min of administration of 85 mg/kg pentylenetetrazol in mouse; na=no activity; assay type: functional, organism-based; design: dose 85 mg/kg
Mus musculus [10] = assay: Anticonvulsant activity of compound expressed in terms of median effective dose (ED50) produced after MES test in mouse by i.p. administration (range 11.5-15.8); settings: ip
Mus musculus [11] = assay: Anticonvulsant activity of compound expressed in terms of median effective dose (ED50) produced after ScMet test in mouse by i.p. administration (range 12.5-20.6); settings: ip
Mus musculus [12] = organism: Mus musculus; assay: Protective index (TD50/ED50) produced by compound in mouse after MES test
Mus musculus [13] = organism: Mus musculus; assay: Protective index (TD50/ED50) produced by compound in mouse after ScMet test
Mus musculus [14] = organism: Mus musculus; assay: Concentration of compound producing anticonvulsant drug-inducedneurologic deficit after 0.5 hrs done by rotarod ataxia test in mouse; settings: in vivo; remark: listed apart in the source
Mus musculus [15] = assay: Concentration producing seizure after 4 hrs tested by MES (Maximal ElectroShock test) done after 30 min of administration in mouse
Mus musculus [16] = assay: Anticonvulsant activity of compound expressed in terms of median effective dose (ED50) produced after MES test in mouse by i.p. administration (range 12.9-10.9); settings: ip
Mus musculus [17] = assay: Anticonvulsant activity of compound expressed in terms of median effective dose (ED50) produced after ScMet test in mouse by i.p. administration (range 5.7-7.9); settings: ip
Mus musculus [18] = assay: Anticonvulsant activity of compound expressed in terms of median effective dose (ED50) produced after ScMet test in mouse by i.p. administration (range 21.6-26.7); settings: ip
Mus musculus [19] = assay: Anticonvulsant activity of compound expressed in terms of median effective dose (ED50) produced after MES test in mouse by i.p. administration (range 14.8-20.4); settings: ip
Mus musculus [20] = assay: Concentration producing seizure after 0.5 hrs tested by ScMet (Subcutaneous pentylenetetrazole test) done after 30 min of administration of 85 mg/kg pentylenetetrazol in mouse (no activity)
Mus musculus [21] = assay: Anticonvulsant activity of compound expressed in terms of median effective dose (ED50) produced after MES test in mouse by i.p. administration (range 19.5-28); settings: ip
Mus musculus [22] = assay: Anticonvulsant activity of compound expressed in terms of median effective dose (ED50) produced after ScMet test in mouse by i.p. administration (range 21.4-28.2); settings: ip
Mus musculus [23] = assay: Anticonvulsant activity of compound expressed in terms of median effective dose (ED50) produced after ScMet test in mouse by i.p. administration (range 9.3-13.1); settings: ip
Mus musculus [24] = assay: Anticonvulsant activity of compound expressed in terms of median effective dose (ED50) produced after MES test in mouse by i.p. administration (range 17-24.5); settings: ip
Mus musculus [25] = assay: Anticonvulsant activity of compound expressed in terms of median effective dose (ED50) produced after ScMet test in mouse by i.p. administration (range 123-177); settings: ip
Mus musculus [26] = assay: Anticonvulsant activity of compound expressed in terms of median effective dose (ED50) produced after MES test in mouse by i.p. administration (range 247-338); settings: ip
Mus musculus [27] = assay: Anticonvulsant activity of compound expressed in terms of median effective dose (ED50) produced after ScMet test in mouse by i.p. administration; settings: ip
Mus musculus [28] = assay: Anticonvulsant activity of compound expressed in terms of median effective dose (ED50) produced after MES test in mouse by i.p. administration (range 5.5-14.1); settings: ip

| SMILES | Dose (Mus musculus [1]) | Dose (Mus musculus [2]) | DOSE (Mus musculus [3]) | Dose (Mus musculus [4]) | DOSE (Mus musculus [5]) | DOSE (Mus musculus [6]) | DOSE (Mus musculus [7]) | PI (Mus musculus [13]) | also measured |
| --- | --- | --- | --- | --- | --- | --- | --- | --- | --- |
| CCCCOc1ccc2c(c1)CCc1nncn1-2 | 100 mg/kg | 100 mg/kg | No activity | 100 mg/kg | No activity | No activity |  |  |  |
| CCC1(c2ccccc2)C(=O)NC(=O)NC1=O [PHENOBARBITAL] |  |  |  |  |  |  |  |  | ED50 (Rattus norvegicus): 69 mg/kg |
| Clc1ccc(COc2ccc3c(c2)CCc2nncn2-3)cc1Cl |  |  | No activity |  | No activity | No activity | No activity |  | DOSE (Mus musculus [8]): No activity; DOSE (Mus musculus [9]): No activity |
| CCCCCCOc1ccc2c(c1)CCc1nncn1-2 | 30 mg/kg | 100 mg/kg | No activity | 30 mg/kg | No activity | No activity |  | 1.7 | ED50 (Mus musculus [10]): 13.5 mg/kg; ED50 (Mus musculus [11]): 17.7 mg/kg; PI (Mus musculus [12]): 2.2 |
| Fc1ccc(COc2ccc3c(c2)CCc2nncn2-3)cc1 | 30 mg/kg |  |  | 30 mg/kg | No activity | No activity |  | 8.1 | Dose (Mus musculus [14]): 100 mg/kg; Dose (Mus musculus [15]): 30 mg/kg; ED50 (Mus musculus [16]): 11.8 mg/kg; ED50 (Mus musculus [17]): 6.7 mg/kg; PI (Mus musculus [12]): 4.6 |
| c1ccc(COc2ccc3c(c2)CCc2nncn2-3)cc1 | 30 mg/kg | 100 mg/kg | No activity | 100 mg/kg | No activity | No activity |  | 2.6 | ED50 (Mus musculus [18]): 24 mg/kg; ED50 (Mus musculus [19]): 17.3 mg/kg; PI (Mus musculus [12]): 3.5 |
| CCOc1ccc2c(c1)CCc1nncn1-2 |  |  |  |  |  | No activity | No activity |  | DOSE (Mus musculus [8]): No activity; DOSE (Mus musculus [9]): No activity |
| CCCCCCCCCCCCOc1ccc2c(c1)CCc1nncn1-2 |  |  | No activity |  | No activity | No activity | No activity |  | DOSE (Mus musculus [8]): No activity; DOSE (Mus musculus [9]): No activity |
| Fc1cccc(F)c1COc1ccc2c(c1)CCc1nncn1-2 |  |  | No activity |  | No activity | No activity | No activity |  | DOSE (Mus musculus [8]): No activity; DOSE (Mus musculus [9]): No activity |
| CCCCCCCCOc1ccc2c(c1)CCc1nncn1-2 | 100 mg/kg |  | No activity |  | No activity | No activity | No activity |  | Dose (Mus musculus [20]): 100 mg/kg |
| Brc1cccc(COc2ccc3c(c2)CCc2nncn2-3)c1 | 30 mg/kg | 100 mg/kg | No activity | 30 mg/kg | No activity | No activity |  | 4 | ED50 (Mus musculus [21]): 23.3 mg/kg; ED50 (Mus musculus [22]): 24.5 mg/kg; PI (Mus musculus [12]): 4.2 |
| Cc1ccc(COc2ccc3c(c2)CCc2nncn2-3)cc1 | 30 mg/kg | 100 mg/kg | No activity | 30 mg/kg | No activity | No activity |  | 5.9 | ED50 (Mus musculus [23]): 11.1 mg/kg; PI (Mus musculus [12]): 3.2; ED50 (Mus musculus [24]): 20.5 mg/kg |
| CCCOc1ccc2c(c1)CCc1nncn1-2 | 100 mg/kg | 100 mg/kg | No activity | 100 mg/kg | No activity | No activity |  |  |  |
| Clc1ccc(COc2ccc3c(c2)CCc2nncn2-3)cc1 | 300 mg/kg |  | No activity | 300 mg/kg | No activity | No activity | No activity |  |  |
| CCCC(CCC)C(=O)O [VALPROIC ACID] |  |  |  |  |  |  |  |  | ED50 (Mus musculus [25]): 149 mg/kg; ED50 (Mus musculus [26]): 272 mg/kg |
| NC(=O)N1c2ccccc2C=Cc2ccccc21 [CARBAMAZEPINE] |  |  |  |  |  |  |  | <0.22 | ED50 (Mus musculus [27]): > 100 mg/kg; ED50 (Mus musculus [28]): 8.8 mg/kg |
| Fc1ccccc1COc1ccc2c(c1)CCc1nncn1-2 | 300 mg/kg |  | No activity | 300 mg/kg | No activity | No activity | No activity |  |  |
| COc1ccc(COc2ccc3c(c2)CCc2nncn2-3)cc1 | 100 mg/kg | 300 mg/kg | No activity | 100 mg/kg | No activity | No activity |  |  |  |
| O=C1NC(=O)C(c2ccccc2)(c2ccccc2)N1 [PHENYTOIN] |  |  |  |  |  |  |  | <0.22 | ED50 (Mus musculus [27]): > 300 mg/kg |
| c1cc2c(cc1COc1ccc3c(c1)CCc1nncn1-3)OCO2 | 100 mg/kg | 300 mg/kg | No activity | 100 mg/kg | No activity | No activity |  |  |  |

From ChEMBL document CHEMBL1143470, “Synthesis and anticonvulsant activity of 7-alkoxyl-4,5-dihydro-[1,2,4]triazolo[4,3-a]quinolines” (Bioorg Med Chem Lett, 2005)
